Test results published in patent US6337394B2, “Compounds” (AstraZeneca AB, priority 1997, dated 2002).

Biological target: T1, Human thrombin (Homo sapiens, UniProt P00734)
T1 construct: purchased Sigma Chem. Co. T 6769
Experiment: Determination of Thrombin Clotting Time (TT), Test A
Format: biochemical
Conditions: concentration of inhibitor that doubles the thrombin clotting time for human plasma; pooled normal citrated human plasma, pH 7.4
Procedure: Determination of Thrombin Clotting Time (TT)
Human thrombin (T 6769, Sigma Chem. Co.) in buffer solution, pH 7.4, 100 μL, and inhibitor solution, 100 μL, were incubated for one min. Pooled normal citrated human plasma, 100 μL, was then added and the clotting time measured in an automatic device (KC 10, Amelumg).
The clotting time in seconds was plotted against the inhibitor concentration, and the IC50TT was determined by interpolation.
IC50TT is the concentration of inhibitor in the test that doubles the thrombin clotting time for human plasma.

COc1ccc(OC)c(C(CO)C(=O)N2CCCC2C(=O)NCc2ccc(C(=N)N)cc2C)c1 (single isomer, unassigned) [Example 2, (2,5-diMeO)Ph—(R or S)CH(CH2OH)—CO-Pro-Pab(2-Me)×HOAc]
IC50: < 300 nM
